{"source": "patent US7156906B2", "about": "“Impregnating agent” (Yara International ASA, priority 2001, dated 2007)", "key": {"Dacrymyces stillatus": {"tested_on": "Dacrymyces stillatus", "assay": "growth of the fungi Dacrymyces stillatus at varying concentrations", "format": "cell-based", "conditions": "FIG. 2", "source_text": "(§1) Coniophora puteana and […] stillatus, the former is a standard organism in such tests prescribed for use in the European Standard Test EN 113."}, "Coniophora puteana [1]": {"tested_on": "Coniophora puteana", "assay": "wood block test, % reduction of dry matter after exposure to fungi (EN 113)", "conditions": "3 months", "description": "Coniophora puteana and […] stillatus, the former is a standard organism in such tests prescribed for use in the European Standard Test EN 113. The tests were carried out in the following way: Small blocks of wood of the prescribed size 5 cm×2.5 cm×1.5 cm were numbered and then dried in an oven at 105° C. for 24 hours, cooled and weighed. That represented the dry weight at start. […] The blocks were impregnated with said solution and control blocks with sterile distilled water under vacuum for 10 minutes and then left in the impregnating solution for 1 hour, whereupon they were completely soaked with the impregnating solution. Subsequent to this impregnation the blocks were placed on filter paper for 30 minutes for drainage. The test blocks were then washed three times with distilled water for 2 minutes and then left in distilled water for 24 hours and finally washed three times with distilled water and then placed on filter paper for drainage. Four blocks were used for each concentration of impregnating solution with 2 blocks in each test flask, so-called Kolle flasks. The duration of the tests was 3 months. The blocks were then removed from the flasks and scraped clean of fungi, whereupon they were dried at 105° C. for 24 hours and weighed and percent reduction in dry weight was calculated."}, "Coniophora puteana [2]": {"tested_on": "Coniophora puteana", "assay": "growth of the fungi Coniophora puteana at varying concentrations", "format": "cell-based", "conditions": "FIG. 1", "source_text": "as §1"}}, "data": [{"molecule": "O=CO.O=C[O-].[K+]", "note": "[K-diformate, potassium diformate]", "values": [{"measurement": "concentration necessary to achieve complete retardation in growth", "setting": "Dacrymyces stillatus", "result": "at least 0.18 weight %"}, {"measurement": "concentration necessary to obtain required effect on reduction of dry matter", "setting": "Coniophora puteana [1]; with subsequent washing of test blocks, FIG. 4", "result": 4.8, "unit": "%"}, {"measurement": "concentration giving complete effect on reduction of dry matter", "setting": "Coniophora puteana [1]; without subsequent washing of test blocks, FIGS. 3 and 7", "result": "1.3–2%"}, {"measurement": "concentration at which it acts as an effective fungicide (growth)", "setting": "Coniophora puteana [2]", "result": "at least 0.13 weight %"}]}]}
